One test deals with T1, Prolyl endopeptidase FAP (Homo sapiens, UniProt Q12884).
T1 sequence (Q12884 whole entry): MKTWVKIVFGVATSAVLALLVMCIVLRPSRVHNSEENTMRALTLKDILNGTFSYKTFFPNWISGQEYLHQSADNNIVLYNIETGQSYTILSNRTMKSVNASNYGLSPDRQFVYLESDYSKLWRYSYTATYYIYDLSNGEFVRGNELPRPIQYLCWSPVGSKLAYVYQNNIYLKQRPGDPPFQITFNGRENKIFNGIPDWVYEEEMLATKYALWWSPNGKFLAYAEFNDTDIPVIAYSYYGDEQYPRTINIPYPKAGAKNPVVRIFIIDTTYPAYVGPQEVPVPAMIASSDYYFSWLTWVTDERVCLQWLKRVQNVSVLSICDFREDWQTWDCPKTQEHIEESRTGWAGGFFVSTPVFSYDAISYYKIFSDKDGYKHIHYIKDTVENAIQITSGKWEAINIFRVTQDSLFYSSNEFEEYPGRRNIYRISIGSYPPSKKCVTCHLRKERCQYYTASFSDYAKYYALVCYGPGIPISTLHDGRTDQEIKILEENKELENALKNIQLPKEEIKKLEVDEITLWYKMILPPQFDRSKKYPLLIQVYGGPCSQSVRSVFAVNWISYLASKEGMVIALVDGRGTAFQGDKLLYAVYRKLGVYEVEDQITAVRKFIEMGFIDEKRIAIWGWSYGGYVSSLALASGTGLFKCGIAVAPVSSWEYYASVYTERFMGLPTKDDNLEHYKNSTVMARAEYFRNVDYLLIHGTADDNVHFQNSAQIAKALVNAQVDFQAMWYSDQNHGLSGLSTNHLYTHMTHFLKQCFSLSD
In words: Inhibition of FAP (unknown origin).

In another test the target is T2, Prolyl endopeptidase (Homo sapiens, UniProt P48147).
T2 sequence (P48147 whole entry): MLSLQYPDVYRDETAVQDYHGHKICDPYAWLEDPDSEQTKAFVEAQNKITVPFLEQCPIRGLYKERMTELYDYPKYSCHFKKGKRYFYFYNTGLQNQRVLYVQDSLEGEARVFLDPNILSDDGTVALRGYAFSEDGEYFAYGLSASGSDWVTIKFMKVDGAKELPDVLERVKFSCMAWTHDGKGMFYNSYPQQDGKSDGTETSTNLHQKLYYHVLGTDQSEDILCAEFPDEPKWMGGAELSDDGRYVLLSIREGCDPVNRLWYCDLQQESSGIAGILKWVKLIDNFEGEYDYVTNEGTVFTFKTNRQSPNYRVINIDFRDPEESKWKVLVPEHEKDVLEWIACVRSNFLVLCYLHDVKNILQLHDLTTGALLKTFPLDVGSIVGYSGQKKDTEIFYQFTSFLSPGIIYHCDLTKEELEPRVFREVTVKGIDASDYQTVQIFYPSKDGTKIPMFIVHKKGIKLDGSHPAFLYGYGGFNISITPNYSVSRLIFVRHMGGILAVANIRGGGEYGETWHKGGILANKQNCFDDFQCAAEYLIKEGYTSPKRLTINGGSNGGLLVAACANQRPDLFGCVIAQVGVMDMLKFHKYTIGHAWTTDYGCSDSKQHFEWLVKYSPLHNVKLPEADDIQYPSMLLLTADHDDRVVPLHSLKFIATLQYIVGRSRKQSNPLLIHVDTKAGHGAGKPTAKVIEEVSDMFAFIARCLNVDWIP
Put plainly: Inhibition of PREP (unknown origin).

Usually IC50 stands for the concentration needed to halve the response being measured. Low values mean greater potency, high ones weaker potency. For `CN(CC(=O)O)C1(CCCCNCCNc2c(NCCCCOc3ccc4nccc(C(=O)NCC(=O)N5CC(F)(F)C[C@H]5C#N)c4c3)c(=O)c2=O)CN(CC(=O)O)CCN(CC(=O)O)C1`, the values for the half-maximal inhibitory concentration (IC50) on Prolyl endopeptidase FAP and at Prolyl endopeptidase were 0.8 nM and 1700 nM, respectively.

The values above are taken from ChEMBL document CHEMBL5543163, “Druglike, 18F-labeled PET Tracers Targeting Fibroblast Activation Protein” (J Med Chem, 2024).
